The structures appear in SMILES notation.

Experiment in all cases: Test C postemergence
What all share (assay type): in vivo

The subject of test [1] is Surinam grass (Brachiaria decumbens). Put shortly:
(§1)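 Visual injury scores of 0–100, with 100 meaning complete control, were given relative to controls after 12–14 days in the greenhouse. Treatments used a surfactant-containing non-phytotoxic solvent formulation, sprayed on seeded pots preemergence or on 1–4-leaf plants of 2–18 cm postemergence.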

For test [2], the system named is woolly cupgrass (Eriochloa villosa). Put shortly: as §1
In test [3] the test system is chickweed (Stellaria media). The method in brief: as §1
Where [4] appears, read: Rate 62 g/ha, scale 0 to 100, 0 no effect, 100 complete control.
[5] abbreviates: Rate 125 g/ha, scale 0 to 100, 0 no effect, 100 complete control.
The mark [6] stands for this setting: Rate 250 g/ha, scale 0 to 100 (0 no effect, 100 complete control).
Where [7] appears, read: Rate 500 g/ha, scale 0 to 100 (0 no effect, 100 complete control).

With `CCC(C)c1ccn(C2SCN(c3cccc(C(F)(F)F)c3)C2=O)n1` (stereo not shown) [Compound 20], the “Plant response rating, Surinam grass” value in test [1] (setting [4]), in test [1] (setting [5]) and in test [1] (setting [6]) was 0 throughout. The “Plant response rating, Cupgrass, Woolly” value in test [2] (setting [5]) and in test [2] (setting [6]) was 0 each time. Further, the “Plant response rating, Chickweed” value in test [3] (setting [4]) amounted to 50; in test [3] (setting [5]), 50; in test [3] (setting [6]), 70.

With `CCC(CC)c1ccn(C2SCN(c3cccc(C(F)(F)F)c3)C2=O)n1` (stereo not shown) [Compound 21], the “Plant response rating, Surinam grass” value is listed as 0 in test [1] (Rate 31 g/ha, scale 0 to 100); 0 in test [1] (setting [4]); 0 in test [1] (setting [5]). The “Plant response rating, Cupgrass, Woolly” value in test [2] (Rate 31 g/ha, scale 0 to 100) is recorded as 0; in test [2] (setting [5]), 0. Further, the “Plant response rating, Chickweed” value in test [3] (Rate 31 g/ha, scale 0 to 100) came to 30; in test [3] (setting [4]), 50; in test [3] (setting [5]) it was 50.

For the compound `CCC(CC)c1ccn(C2SCN(c3cccc(C(F)(F)F)c3)C2=O)n1` (stereo not shown) [Compound 25], the “Plant response rating, Surinam grass” value in test [1] (setting [4]), in test [1] (setting [5]), in test [1] (setting [6]) and in test [1] (setting [7]) was 0 in each case. Besides, the results for the “Plant response rating, Cupgrass, Woolly” value in test [2] (setting [5]), in test [2] (setting [6]) and in test [2] (setting [7]) were 40, 60 and 70, respectively. For the same compound, the “Plant response rating, Chickweed” value is 60 in test [3] (setting [4]), 70 in test [3] (setting [5]), 80 in test [3] (setting [6]) and 90 in test [3] (setting [7]).

As to `CC(C)(C)c1ccn(C2SCN(c3cccc(OC(F)(F)F)c3)C2=O)n1` (stereo not shown) [Compound 30], the “Plant response rating, Surinam grass” value is given as 0 in test [1] (setting [4]), 0 in test [1] (setting [5]), 0 in test [1] (setting [6]) and 60 in test [1] (setting [7]). The “Plant response rating, Cupgrass, Woolly” value in test [2] (setting [5]) was 30; in test [2] (setting [6]) it was 40; in test [2] (setting [7]) it was 80. Further, the “Plant response rating, Chickweed” value turned out to be 50 in test [3] (setting [4]), 60 in test [3] (setting [5]), 70 in test [3] (setting [6]) and 90 in test [3] (setting [7]).

Turning to `CC(C)(C)c1ccn(C2SCN(c3cccc(OC(F)F)c3)C2=O)n1` (stereo not shown) [Compound 36], the “Plant response rating, Surinam grass” value in test [1] (Rate 31 g/ha, scale 0 to 100) is 0; in test [1] (setting [4]), 0; in test [1] (setting [5]), 0; in test [1] (setting [6]), 0. For the same compound, the “Plant response rating, Cupgrass, Woolly” value in test [2] (Rate 31 g/ha, scale 0 to 100) turned out to be 0; in test [2] (setting [5]) it was 0; in test [2] (setting [6]) it was 0. Besides, the “Plant response rating, Chickweed” value in test [3] (Rate 31 g/ha, scale 0 to 100) is 0; in test [3] (setting [4]), 0; in test [3] (setting [5]) it was 0; in test [3] (setting [6]), 50.

On to `O=C1C(n2ccc(C3CCC3)n2)SCN1c1cccc(C(F)(F)F)c1` (stereo not shown) [Compound 37], for which the “Plant response rating, Surinam grass” value in test [1] (Rate 31 g/ha, scale 0 to 100) was determined as 0; in test [1] (setting [5]) it was 0; in test [1] (setting [6]), 0. Also, the “Plant response rating, Cupgrass, Woolly” value in test [2] (Rate 31 g/ha, scale 0 to 100) is listed as 0; in test [2] (setting [5]), 0; in test [2] (setting [6]), 0. For the same compound, the “Plant response rating, Chickweed” value is recorded as 0 in test [3] (Rate 31 g/ha, scale 0 to 100); 0 in test [3] (setting [4]); 0 in test [3] (setting [5]); 0 in test [3] (setting [6]).

`O=C1C(n2ccc(C3CCC3)n2)SCN1c1cccc(OC(F)(F)F)c1` (stereo not shown) [Compound 38]: the “Plant response rating, Surinam grass” value in test [1] (Rate 62 g/ha, scale 0 to 100) amounted to 0; in test [1] (setting [5]), 0; in test [1] (setting [6]), 0; in test [1] (setting [7]) it was 0. Besides, the “Plant response rating, Cupgrass, Woolly” value in test [2] (Rate 62 g/ha, scale 0 to 100) was found to be 0; in test [2] (setting [5]) it was 0; in test [2] (setting [6]), 0; in test [2] (setting [7]), 0. The “Plant response rating, Chickweed” value was found to be 0 in test [3] (Rate 62 g/ha, scale 0 to 100); 0 in test [3] (setting [5]); 0 in test [3] (setting [6]); 0 in test [3] (setting [7]).

For `CCC(C)c1ccn(C2SCN(c3cccc(OC(F)(F)F)c3)C2=O)n1` (stereo not shown) [Compound 40], the “Plant response rating, Surinam grass” value in test [1] (Rate 62 g/ha, scale 0 to 100) was 0; in test [1] (setting [5]), 0; in test [1] (setting [6]), 0; in test [1] (setting [7]), 0. The “Plant response rating, Cupgrass, Woolly” value amounted to 0 in test [2] (Rate 62 g/ha, scale 0 to 100); 0 in test [2] (setting [5]); 0 in test [2] (setting [6]); 0 in test [2] (setting [7]). For the same compound, the “Plant response rating, Chickweed” value amounted to 0 in test [3] (Rate 62 g/ha, scale 0 to 100); 0 in test [3] (setting [5]); 0 in test [3] (setting [6]); 0 in test [3] (setting [7]).

`CCC(C)c1ccn(C2CCN(c3ccc(C)c(OC)c3)C2=O)n1` (stereo not shown) [Compound 80]: the “Plant response rating, Surinam grass” value in test [1] (Rate 62 g/ha, scale 0 to 100) is reported as 0; in test [1] (setting [5]), 0; in test [1] (setting [6]), 0; in test [1] (setting [7]), 0. The “Plant response rating, Cupgrass, Woolly” value is reported as 0 in test [2] (Rate 62 g/ha, scale 0 to 100); 0 in test [2] (setting [5]); 0 in test [2] (setting [6]); 0 in test [2] (setting [7]). The “Plant response rating, Chickweed” value in test [3] (Rate 62 g/ha, scale 0 to 100) is 20; in test [3] (setting [5]), 20; in test [3] (setting [6]), 30; in test [3] (setting [7]) it was 60.

As to `CCC(CC)c1ccn(C2CCN(c3ccc(C)c(OC)c3)C2=O)n1` (stereo not shown) [Compound 81], the “Plant response rating, Surinam grass” value in test [1] (Rate 31 g/ha, scale 0 to 100) came out at 0; in test [1] (Rate 62 g/ha, scale 0 to 100), 0; in test [1] (setting [5]), 0; in test [1] (setting [6]), 0. For the same compound, the “Plant response rating, Cupgrass, Woolly” value in test [2] (Rate 31 g/ha, scale 0 to 100) is 0; in test [2] (Rate 62 g/ha, scale 0 to 100) it was 0; in test [2] (setting [5]) it was 0; in test [2] (setting [6]), 0. In addition, the “Plant response rating, Chickweed” value in test [3] (Rate 31 g/ha, scale 0 to 100) is 0; in test [3] (Rate 62 g/ha, scale 0 to 100), 20; in test [3] (setting [5]), 20; in test [3] (setting [6]) it was 60.

As for `COc1cc(N2CCC(n3ccc(C(C)C)n3)C2=O)ccc1C` (stereo not shown) [Compound 85], the “Plant response rating, Surinam grass” value is recorded as 0 in test [1] (Rate 62 g/ha, scale 0 to 100); 20 in test [1] (setting [5]); 20 in test [1] (setting [6]); 60 in test [1] (setting [7]). The “Plant response rating, Cupgrass, Woolly” value in test [2] (Rate 62 g/ha, scale 0 to 100) is listed as 30; in test [2] (setting [5]) it was 30; in test [2] (setting [6]) it was 60; in test [2] (setting [7]), 70. Besides, the “Plant response rating, Chickweed” value in test [3] (Rate 62 g/ha, scale 0 to 100) worked out at 20; in test [3] (setting [5]) it was 70; in test [3] (setting [6]), 100; in test [3] (setting [7]), 100.

For the compound `CCOc1cc(N2CCC(n3ccc(C(C)(C)C)n3)C2=O)ccc1C` (stereo not shown) [Compound 106], the “Plant response rating, Surinam grass” value worked out at 0 in test [1] (Rate 31 g/ha, scale 0 to 100); 0 in test [1] (Rate 62 g/ha, scale 0 to 100); 0 in test [1] (setting [5]); 0 in test [1] (setting [6]). Also, the “Plant response rating, Cupgrass, Woolly” value in test [2] (Rate 31 g/ha, scale 0 to 100) turned out to be 0; in test [2] (Rate 62 g/ha, scale 0 to 100) it was 10; in test [2] (setting [5]), 30; in test [2] (setting [6]), 40.

For the compound `COc1cc(N2CCC(n3ccc(C(C)C)n3)C2=O)ccc1Cl` (stereo not shown) [Compound 120], the “Plant response rating, Surinam grass” value in test [1] (Rate 62 g/ha, scale 0 to 100) turned out to be 0; in test [1] (setting [5]), 0; in test [1] (setting [6]), 0; in test [1] (setting [7]), 0. Further, the “Plant response rating, Cupgrass, Woolly” value in test [2] (Rate 62 g/ha, scale 0 to 100) is reported as 0; in test [2] (setting [6]) it was 0; in test [2] (setting [7]) it was 0.

Take `CCCC(C)c1ccn(C2CCN(c3ccc(Cl)c(OC)c3)C2=O)n1` (stereo not shown) [Compound 121]: the “Plant response rating, Surinam grass” value in test [1] (Rate 62 g/ha, scale 0 to 100) is on record as 0; in test [1] (setting [5]), 0; in test [1] (setting [6]), 0; in test [1] (setting [7]), 0. The “Plant response rating, Cupgrass, Woolly” value in test [2] (Rate 62 g/ha, scale 0 to 100) was determined as 0; in test [2] (setting [6]), 30; in test [2] (setting [7]), 60.

For the compound `Cc1ccc(N2CCC(n3ccc(C(C)(C)C)n3)C2=O)cc1I` (stereo not shown) [Compound 122], the “Plant response rating, Surinam grass” value in test [1] (Rate 62 g/ha, scale 0 to 100) is reported as 0; in test [1] (setting [5]), 0; in test [1] (setting [6]) it was 0; in test [1] (setting [7]), 0. The “Plant response rating, Cupgrass, Woolly” value is 0 in test [2] (Rate 62 g/ha, scale 0 to 100); 20 in test [2] (setting [6]); 20 in test [2] (setting [7]).

The values above are taken from US7138361B2, “Herbicidal heterocycles” (E. I. du Pont de Nemours and Company, priority 2000, dated 2006).
